This note sets out measurements from patent US20250042897A1, “HETEROCYCLIC COMPOUNDS AS TRIGGERING RECEPTOR EXPRESSED ON MYELOID CELLS 2 AGONISTS AND METHODS OF USE” (Vigil Neuroscience, Inc., priority 2021, published 2025).

The experiment addresses T1, human TREM2 (Homo sapiens, UniProt Q9NZC2).
T1 construct: expressed in transfected cells; host or cells: HEK293T
Kind of experiment: hTREM2 agonist potency by cellular Syk phosphorylation (AlphaLisa) in HEK293T-hTREM2 cells. Type of experiment: cell-based. Conditions: HEK293 cells expressing human TREM2 and DAP12, pSyk AlphaLisa, 45 minutes at room temperature. The protocol: In Vitro Measurement of Triggering Receptor Expressed on Myeloid Cells 2 Activity Using Cellular Phosphorylation of Spleen Tyrosine Kinase (“Syk”) Assays
Measurement of TREM2 agonist potency was done using a HEK cell line expressing human TREM2 and DAP12 (HEK293T-hTREM2 cells). Binding of small molecules to, and activation of, TREM2 increases the phosphorylation of Syk. The resultant levels of Syk phosphorylation are measured using a commercial AlphaLisa reagent kit. To perform the assay, HEK-hTREM2 cells were plated at 14,000 cells per well in a 384 well plate, in 25 μL of complete growth media and incubated at 37° C., 5% CO2 for 20-24 hours.
Prior to the assay, test compounds were diluted in the 384 well plates in assay buffer and allowed to equilibrate for 30 minutes. Growth media was removed from cell plates by inversion on blotting paper, and 25 μL of test articles in assay buffer was added to cells. Cells were incubated for 45 minutes at room temperature. After 45 minutes, assay buffer was removed and 10 μL of lysis buffer was added. Plates were shaken for 20 minutes at 350 RPM at room temperature. After complete lysis, AlphaLisa reagents were added to the lysate, and fluorescence intensity was measured using a Perkin Elmer Envision plate reader. Intensities were used to generate a standard curve, and % activation was calculated. Curve fitting was performed using Prism v9 software, log (agonist) vs response-variable slope (four parameters), and EC50s were calculated from the curve fit.
The results presented in Table D have been generated with the in vitro assay described above. This assay may be used to test any of the compounds described herein to assess and characterize a compound's ability to act as an agonist of TREM2.

T1 sequence (Q9NZC2 19-230): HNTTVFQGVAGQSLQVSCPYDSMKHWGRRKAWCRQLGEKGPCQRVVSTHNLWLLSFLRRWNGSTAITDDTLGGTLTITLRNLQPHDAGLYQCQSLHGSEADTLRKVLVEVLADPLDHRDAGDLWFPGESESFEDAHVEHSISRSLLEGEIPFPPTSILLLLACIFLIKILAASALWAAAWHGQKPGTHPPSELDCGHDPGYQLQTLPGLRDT
T1 sequence (O43914 22-113 partner): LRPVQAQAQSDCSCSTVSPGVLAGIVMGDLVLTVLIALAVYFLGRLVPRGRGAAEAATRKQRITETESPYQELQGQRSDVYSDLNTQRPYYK

`Cn1ncc2c(-c3ccc(F)cc3F)nc(C3CCO[C@@H](c4cnn(C5CC5)c4)C3)cc2c1=O` (stereo partly drawn) [I-63, 7-[(2R)-2-(1-cyclopropylpyrazol-4-yl)tetrahydropyran-4-yl]-5-(2,4-difluorophenyl)-2-methyl-pyrido[3,4-d]pyridazin-1-one] had an EC50 (Table D-2) of 50 to 500 nM.
Consider `CCn1ncc2c(-c3ccc(Cl)cc3F)nc(N3C[C@@H](C)O[C@@H](c4cnn(C5CC5)c4)C3)nc2c1=O` [I-193, 4-(4-chloro-2-fluorophenyl)-2-((2S, 6R)-2-(1-cyclopropyl-1H-pyrazol-4-yl)-6-methylmorpholino)-7-ethyl-pyrimido[4,5-d]pyridazin-8 (7H)-one], for which the EC50 (Table D-2) is no more than 50 nM.
Consider `Cc1nc2c(-c3ccc(F)cc3F)nc([C@H]3CCO[C@@H](c4cnn(C5CC5)c4)C3)nc2c(=O)n1C` [I-105, 6-((2R,4S)-2-(1-cyclopropyl-1H-pyrazol-4-yl)tetrahydro-2H-pyran-4-yl)-8-(2,4-difluorophenyl)-2,3-dimethylpyrimido[5,4-d]pyrimidin-4 (3H)-one], for which the EC50 (Table D-2) lay in the range of 50 to 500 nM.
`Cn1ncc2c(-c3ccc(F)cc3F)nc(C3CCO[C@@H](c4cnn(C5CC5)c4)C3)nc2c1=O` (stereo partly drawn) [I-146, 2-[(2R)-2-(1-cyclopropylpyrazol-4-yl)tetrahydropyran-4-yl]-4-(2,4-difluorophenyl)-7-methyl-pyrimido[4,5-d]pyridazin-8-one] came in with an EC50 (Table D-2) of 50 to 500 nM.
`O=c1c2nc(C3CCOC(c4cnn(C5CC5)c4)C3)nc(-c3ccc(C(F)(F)F)cc3F)c2cnn1C1CC1` (centres unmarked) [I-115] had an EC50 (Table D-2) of 500 to 3000 nM.
The same measure, in the same setting: then `Cc1cc([C@H]2CN(c3nc(-c4ccc(F)cc4F)c4nc(C)n(C)c(=O)c4n3)C[C@@H](C)O2)ccn1` [I-213, 8-(2,4-difluorophenyl)-2,3-dimethyl-6-[(2R, 6S)-2-methyl-6-(2-methyl-4-pyridyl)morpholin-4-yl]pyrimido[5,4-d]pyrimidin-4-one], with no more than 50 nM.
The same measure, in the same setting: the value for `Cn1ncc2c(-c3ccc(Cl)cc3F)nc(N3C[C@@H](C4CC4)O[C@@H](c4cnn(C5CC5)c4)C3)nc2c1=O` (single isomer, unassigned) [I-183] was no more than 50 nM.
Turning to `Cc1nc2cc(N3CCO[C@@H](c4cc[nH]c(=O)c4)C3)nc(-c3ccc(F)cc3F)c2c(=O)n1C` [compound 2, (S)-5-(2,4-difluorophenyl)-2,3-dimethyl-7-(2-(2-oxo-1,2-dihydropyridin-4-yl)morpholino)pyrido[4,3-d]pyrimidin-4(3H)-one], the EC50 (Table D) lay in the range of 50 to 500 nM.
Consider `Cc1cc([C@H]2CC(c3nc(-c4ccc(Cl)cc4F)c4nc(C)n(C)c(=O)c4n3)CCO2)ccn1` (stereo partly drawn) [I-188, 8-(4-chloro-2-fluoro-phenyl)-2,3-dimethyl-6-[(2R)-2-(2-methyl-4-pyridyl)tetrahydropyran-4-yl]pyrimido[5,4-d]pyrimidin-4-one], for which the EC50 (Table D-2) is no more than 50 nM.
`Cc1nc2cc(N3CCOC(c4cc[nH]c(=O)c4)C3)nc(-c3ccc(F)cc3F)c2c(=O)n1C` (centres unmarked) [compound 1, 5-(2,4-difluorophenyl)-2,3-dimethyl-7-(2-(2-oxo-1,2-dihydropyridin-4-yl)morpholino)pyrido[4,3-d]pyrimidin-4(3H)-one] returned an EC50 (Table D) of 50 to 500 nM.
On to `COCn1cc([C@H]2CN(c3nc(-c4ccc(Cl)cc4F)c4cnn(C)c(=O)c4n3)C[C@@H](C)O2)cn1` [I-178], for which the EC50 (Table D-2) was no more than 50 nM.
Where the note is “Table D-2”, `C[C@@H]1CN(c2nc(-c3ccc(C(F)(F)F)nc3)c3cnn(C)c(=O)c3n2)C[C@H](c2cnn(C3CC3)c2)O1` [I-198, 2-[(2S, 6R)-2-(1-cyclopropylpyrazol-4-yl)-6-methyl-morpholin-4-yl]-7-methyl-4-[6-(trifluoromethyl)-3-pyridyl]pyrimido[4,5-d]pyridazin-8-one] returned an EC50 of no more than 50 nM.
The same measure, in the same setting: then `C[C@@H]1CN(c2nc(-c3cc(F)c(F)cc3F)c3cnn(C)c(=O)c3n2)C[C@H](c2cnn(C3CC3)c2)O1` [I-218, 2-((2S,6R)-2-(1-cyclopropyl-1H-pyrazol-4-yl)-6-methylmorpholino)-7-methyl-4-(2,4,5-trifluorophenyl)pyrimido[4,5-d]pyridazin-8 (7H)-one], with no more than 50 nM; and `C[C@@H]1CN(c2cc(-c3ccc(Cl)cc3F)c3cnn(C)c(=O)c3n2)C[C@H](c2cnn(C3CC3)c2)O1` [I-100, 4-(4-chloro-2-fluorophenyl)-2-((2S,6R)-2-(1-cyclopropyl-1H-pyrazol-4-yl)-6-methylmorpholino)-7-methylpyrido[2,3-d]pyridazin-8 (7H)-one], with 50 to 500 nM.
With `Cn1ncc2c(-c3ccc(Cl)cc3F)nc([C@H]3CCO[C@@H](c4cnn(C5CC5)c4)C3)cc2c1=O` [I-48, 5-(4-chloro-2-fluoro-phenyl)-7-[(2R,4S)-2-(1-cyclopropylpyrazol-4-yl)tetrahydropyran-4-yl]-2-methyl-pyrido[3,4-d]pyridazin-1-one], the EC50 (Table D-2) is no more than 50 nM.
Same read-out and setting: the value for `Cn1ncc2c(-c3ccc(Cl)cc3F)nc(N3CCOC(c4cnn(C5CC5)c4)C3)cc2c1=O` (centres unmarked) [I-45, 5-(4-chloro-2-fluorophenyl)-7-(2-(1-cyclopropyl-1H-pyrazol-4-yl)morpholino)-2-methylpyrido[3,4-d]pyridazin-1 (2H)-one] was 50 to 500 nM; that for `C[C@@H]1CN(c2cc3c(=O)n(C)ncc3c(-c3ccc(F)cc3F)n2)C[C@H](c2cnn(C3CC3)c2)O1` [I-58, 7-[(2S,6R)-2-(1-cyclopropylpyrazol-4-yl)-6-methyl-morpholin-4-yl]-5-(2,4-difluorophenyl)-2-methyl-pyrido[3,4-d]pyridazin-1-one] was no more than 50 nM.
`Cc1nc2nc([C@@H]3CCO[C@H](c4cnn(C5CC5)c4)C3)cc(-c3ccc(F)cc3F)c2c(=O)n1C` (single isomer, unassigned) [I-42]: the EC50 (Table D-2) is 500 to 3000 nM.
As to `Cn1ncc2c(-c3ccc(C(F)(F)F)cc3F)nc(C3CCO[C@@H](c4cnn(C5CC5)c4)C3)nc2c1=O` (stereo partly drawn) [I-84, 2-((2R)-2-(1-cyclopropyl-1H-pyrazol-4-yl)tetrahydro-2H-pyran-4-yl)-4-(2-fluoro-4-(trifluoromethyl)phenyl)-7-methylpyrimido[4,5-d]pyridazin-8 (7H)-one], where the note is “Table D-2”, the EC50 lay in the range of 50 to 500 nM.
Still for that read-out and setting: the value for `Cc1nc2nc([C@H]3CCO[C@@H](c4cnn(C5CC5)c4)C3)cc(-c3ccc(F)cc3F)c2c(=O)n1C` (single isomer, unassigned) [I-40] was no more than 50 nM.
